Test results reported in patent publication US9700541B2, “Seizure therapy” (Creighton University, priority 2012, dated 2017).
Entries after “also recorded” stand apart in the source; their conditions may differ.

System: acute mouse hippocampal slices
Experiment: Extracellular recordings in CA3 stratum radiatum of acute hippocampal slices after complex I inhibition
Assay type: cell-based
Procedure: FIG. 5A depicts electrophysiological recordings showing inhibition of mitochondrial complex I of the electron transport chain creates a hyperexcitable environment in acute mouse hippocampal slices. Epilepsy is defined as a neuronal state of hyperexcitability and hypersynchrony. […] The middle trace is an expansion of field potential marked by an asterisk in the top trace. Time-frequency analysis was performed on the signals to examine the component frequencies occurring during the field potentials. High frequency oscillations (HF05) in the 100-200 Hz bandwidth (called ripples) are normal and reflect small clusters of neurons firing action potentials synchronously. […] Fast ripples occur in humans and animals with epilepsy and are biomarkers for seizure-genic foci.
In Kv1.1−/− hippocampal slices, pathological high frequency oscillations are prevalent throughout the in Kv1.1−/− hippocampal network. In addition, there is an increase in neurotransmitter release probabilities at specific hippocampal circuit synapses. To experimentally mimic the mitochondrial pathology seen in epilepsy, a drug that impairs mitochondrial function at respiratory complex I, rotenone, was applied to control tissue. […] Fast ripples occur in humans and animals with epilepsy and are biomarkers for seizure-genic foci.

## C=C(C)[C@H]1Cc2c(ccc3c2O[C@@H]2COc4cc(OC)c(OC)cc4[C@@H]2C3=O)O1 [rotenone]
Acute application of rotenone to control tissue
  promotion of seizures: sufficient to promote seizures
Rotenone 100 nM, 30 min application
  rate and amplitudes of spontaneous field potentials: increases
Rotenone application, control tissue
  high frequency oscillations (fast ripples), spectral organization: spectral disorganization and the generation of faster HFOs; also recorded: promotes spectral disorganization and the generation of pathologic high frequency oscillations
Rotenone applied to slices
  intensity of ripples and fast ripples: increases
rotenone-treated vs vehicle-treated slice
  seizure-like events following high potassium (8 mM): greater in amplitude and longer in duration
